Measurements reported in paper PMC12195740, “Discovery of Novel Imidazothiazole-Based Hydroxamic Acid Derivatives as Potent Indoleamine 2,3-Dioxygenase 1 and Histone Deacetylase 6 Dual Inhibitors” (Molecules, 2025).

Legend:
[1] = test system: Ac-histone H3 (substrate for HDACs 1, 2, and 3); assay: Western blot of Ac-histone H3 in HCT-116 cells; format: cell-based; conditions: HCT-116, 20 μM, 24 h
Experimental: Since HDACs regulate the acetylation status of histone and nonhistone proteins in cells, the acetylation levels of histone H3 (a known substrate for HDACs 1, 2, and 3) and α-tubulin (a known substrate for HDAC6) are frequently used as markers of cellular HDAC activity. […] HCT-116 cells were incubated with compound 10e (5−20 μM) for 24 h, and the levels of acetylation of histone H3 and α-tubulin were detected by the Western blot. […]
with 75% cold ethanol at 4 °C overnight. After that, fixed cells were washed with PBS. Then, cells were isolated by centrifugation and stained with propidium iodide (KeyGEN BioTECH, China) for 30 min. The samples were measured using flow cytometry and analyzed by Flowjo software.
Section S 1.6 Western blot assay
Total cell lysates from cultured HCT-116 cells after treatment with compound 10e as mentioned earlier were obtained by lysing the cells in ice-cold RIPA buffer with protease and phosphatase inhibitor and stored at -20°C for future use. The protein concentrations were quantified by the Bradford method (Bio-Rad) using a Multimode Varioscan instrument (Thermo Fischer Scientific). […]
The in vivo antitumor activity of compound 10e was evaluated in the mouse colon carcinoma cell line CT-26 in BALB/c mice as described previously. […]

[2] = test system: HCT-116 cells; assay: Cell cycle analysis (PI, flow cytometry); format: cell-based; conditions: 24 h, control 7.77%
Experimental: To assess the impact of compound 10e on the cell cycle, HCT-116 cells were treated with different concentrations of compound 10e (5 μM, 10 μM, and 20 μM) for 24 h, then stained with PI, and analyzed using flow cytometry.
Cell Bank at the Chinese Academy of Sciences. Hct-116, SW480, MDA-MB-231 and MCF-7 cell […]
FBS. DMEM and FBS were obtained from Gibco-Thermo (BRL Co. Ltd., USA). The plates were incubated at 37 °C in a humidified atmosphere of 5% CO2/95% air overnight. The cells were then […]
another 48 h. The cells were stained with 10 μl of MTT at incubator for approximately 4 h. The medium was discarded and replaced by […] DMSO. The O.D. value was read at 570/630 nm with a spectrophotometer.
Section S 1.4 Molecular docking
Molecular docking was carried out in Sybyl-X 2.1 on a Windows workstation. The crystal structure of IDO1 protein with inhibitor was retrieved from the RCSB Protein Data Bank (IDO1:
4PK5, HDAC6: 6THV). Firstly, the 3D structure of the selected compound was built with Sybyl-X 2.1 sketch followed by energy minimization with the MMFF94 force field and Gasteiger-Marsili charges. The Powell’s method was used to optimize the geometry with a distance dependent dielectric constant and a termination energy gradient of 0.005 kcal/mol. […]
with 75% cold ethanol at 4 °C overnight. […] The samples were measured using flow cytometry and analyzed by Flowjo software. […]
Total cell lysates from cultured HCT-116 cells after treatment with compound 10e as mentioned earlier were obtained by lysing the cells in ice-cold RIPA buffer with protease and phosphatase inhibitor and stored at -20°C for future use. The protein concentrations were quantified by the Bradford method (Bio-Rad) using a Multimode Varioscan instrument (Thermo Fischer Scientific).
Equal amounts of protein per lane were applied to 12% SDS polyacrylamide gel for electrophoresis and transferred to a polyvinylidene difluoride (PVDF) membrane (Amersham Biosciences). […] Membranes were washed with TBST three times for 15 min and the protein bands were detected with chemiluminescence reagent (Thermo Fischer Scientific). […]

[3] = test system: MCF-7 cells; assay: Cell viability (MTT) assay, MCF-7; conditions: Homo sapiens, MCF7, 48 h, read-out: Antiproliferative IC50, MCF-7
Experimental: Section S 1.3 Cell viability assays
another 48 h. The cells were stained with 10 μl of MTT at incubator for approximately 4 h. The medium was discarded and replaced by 100 mL DMSO. The O.D. value was read at 570/630 nm with a spectrophotometer.

[4] = Cell viability assay, HK2 normal renal cells; conditions: human
Excerpt: On the basis of the IDO1 and HDAC activities, we explored the proliferation inhibitory activities of the selected compounds against four solid tumor cells lines.

IC50 [3]: 36.5 ± 5.45 µM
SMILES: O=C(CCCCCCNc1ccc(NC(=O)c2cnc3scc(-c4ccc(Br)cc4)n23)cc1)NO [Compound 10e, 3-(4-Bromophenyl)-N-{4-[(7-(hydroxyamino)-7-oxoheptyl)amino]phenyl}imidazo[2,1-b]thiazole-5-carboxamide]
Ac-histone H3 levels [1]: slight increase
cell population in G2/M phase ([2]; HCT-116, 5 μM): 17.39%
cell population in G2/M phase ([2]; HCT-116, 10 μM): 31.89%
cell population in G2/M phase ([2]; HCT-116, 20 μM): 47.18%
IC50 [4]: > 80 µM
